Measured values reported in article PMC9295122, “Sialic Acid Derivatives Inhibit SiaT Transporters and Delay Bacterial Growth” (ACS Chemical Biology, 2022).
Read-outs that look alike come from different tables or passages of the source.

T1: PmSiaT (Proteus mirabilis, UniProt B4EZY7)
T1 construct: made in house
T1 sequence (B4EZY7 1-496): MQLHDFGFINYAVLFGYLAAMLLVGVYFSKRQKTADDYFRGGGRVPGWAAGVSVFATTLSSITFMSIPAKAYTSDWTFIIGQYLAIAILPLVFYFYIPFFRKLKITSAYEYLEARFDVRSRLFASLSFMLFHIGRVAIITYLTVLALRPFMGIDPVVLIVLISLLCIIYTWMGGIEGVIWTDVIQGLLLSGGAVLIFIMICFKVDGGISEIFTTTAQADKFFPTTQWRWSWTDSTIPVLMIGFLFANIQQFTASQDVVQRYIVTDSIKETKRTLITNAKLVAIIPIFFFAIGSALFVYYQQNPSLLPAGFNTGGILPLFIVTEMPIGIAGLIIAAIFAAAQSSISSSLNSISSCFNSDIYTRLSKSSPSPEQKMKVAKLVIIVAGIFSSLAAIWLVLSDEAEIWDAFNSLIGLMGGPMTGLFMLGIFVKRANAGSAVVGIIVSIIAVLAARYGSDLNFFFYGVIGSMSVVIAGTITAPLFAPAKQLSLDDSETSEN

B1: SiaT from S. aureus (Staphylococcus aureus subsp. aureus USA300) (protein)
chain: MKEVGFGTLNWVAVIIYLLAMLFIGVYFTKRASQSTNSFFTASGRLPSWVVGFSIYATTLSAITFMSTPEKAFLTDWSYIAGNIAIVAIIPLLIYFYVPFFKKLKVTSAYEYLEARFGPSIRVIGSLLFVVYHLGRVAIVIYLPTLAITSVSDMNPYIVASLVGLLCILYTFLGGFEGVVWSDFIQGVILLGGALVIIILGVVNIKGGFGTVFADAIEHKKLISADNWKLNTAAAAIPIIFLGNIFNNLYQYTASQDVVQRYQASDSLKETNKSLWTNGILALISAPLFYGMGTMLYSFYTHEAVLPKGFNTSSVVPYFILTEMPPFVAGLLIAAIFAAAQSTISSSLNSISACISIDIKQRFFGKGSERHEVNFARFIIIIAGIFGFGMSLYLIASNSNDLWDLFLFVTGLFGVPLAGVFAVGIFTKRTNTFGVICGLILGIIFAYVYNGVGKGNSPFYVSTISFTVAFVFAYILSFIVPSKHKKDITGLTIFEKDKPSTYISKTATKK

Tests used:
PmSiaT = target: T1, PmSiaT; test: nanoDSF thermal shift assay, PmSiaT; type: binding; conditions: for Average 1 / Average 2 / Average 3 / Replicate 1 / Replicate 2 / Replicate 3: PmSiaT Tm; for Average 1: average of experiment 1; for Average 2: average of experiment 2; for Average 3: average of experiment 3; for Replicate 1: experiment 1, second capillary; for Replicate 1 / Replicate 2 / Replicate 3 / Tm 1 / Tm2 / Tm 3 / Tm average overall / ΔTm at 1250 µM: 1.25 mM; for Replicate 2: experiment 2, second capillary; for Replicate 3: experiment 3, second capillary; for Tm 1 / Tm2 / Tm 3 / Tm average overall / ΔTm / ΔTm at 1250 µM: PmSiaT; for Tm 1: experiment 1, first capillary; for Tm2: experiment 2, first capillary; for Tm 3: experiment 3, first capillary; for Tm average overall / ΔTm at 1250 µM: three experiments; for ΔTm at 1250 µM: vs Neu5Ac, read-out: ΔTm average overall
Description: (§1) Nano-differential scanning fluorimetry (nanoDSF) is a high-throughput method that relies on the thermal stabilization of the folded protein state by a bound ligand.[33]
(§2) The melting points of protein–inhibitor complexes were measured on a Prometheus NT.48 instrument from NanoTemper Technologies. Solutions containing the protein at 2 μM in phosphate buffered saline with 0.0174% (w/v) dodecylmaltoside (DDM) and the ligand at 1.25 mM were loaded onto standard capillaries by NanoTemper. The temperature was increased from 25 to 95 °C at a ramp rate of 1 °C/min. The fluorescence was recorded at 330 and 350 nm and as a ratio of the two wavelengths.
(§3) The intensity ratio and its first derivative were calculated using manufacturer’s software (PR.ThermControl, version 2.1.2).
(§4) The melting temperatures have been measured in 3 separate experiments. In each experiment, two capillaries were included per compound, having therefore 2 technical replicates per experiment. In the table all data is presented. Tm1 and Replicate 1 represent the two replicates of the first experiment. Average 1 is the average between Tm 1 and Replicate 1. ΔTm 1 is the thermal shift when compared to the Tm of Neu5Ac. This is calculated from Average 1. The ΔTm presented in the article are the ΔTm average overall, which represent the overall average of the averages from the three experiments. The standard deviation (SD) is calculated from the […]

SaSiaT = SaSiaT (Staphylococcus aureus, UniProt A0A0H2XJ46); test: nanoDSF thermal shift assay, SaSiaT; type: binding; conditions: for Average 1 / Average 2 / Average 3 / Replicate 1 / Replicate 2 / Replicate 3: SaSiaT Tm; for Average 1: average of experiment 1; for Average 2: average of experiment 2; for Average 3: average of experiment 3; for Replicate 1: experiment 1, second capillary; for Replicate 1 / Replicate 2 / Replicate 3 / Tm 1 / Tm2 / Tm 3 / Overall average (Tm): 1.25 mM; for Replicate 2: experiment 2, second capillary; for Replicate 3: experiment 3, second capillary; for Tm 1 / Tm2 / Tm 3 / Overall average (Tm): SaSiaT; for Tm 1: experiment 1, first capillary; for Tm2: experiment 2, first capillary; for Tm 3: experiment 3, first capillary; for Overall average (Tm): three experiments
Description: as §1, §2, §3, §4

[1] = substrate: CC(=O)N[C@H]1[C@H]([C@H](O)[C@H](O)CO)OC(O)(C(=O)O)C[C@@H]1O; test: cells, lysate or membranes named; conditions: other: Neu5Ac transport by SaSiaT in proteoliposomes; pH 7.0; 25.0 °C
Description: A kinetic analysis was performed by measuring the concentration-dependent uptake of [^3H]Neu5Ac in the presence of two different concentrations of the inhibitors 3f (Figure 5a,c) or 3e (Figure 5b,d).
(a–d) Data were plotted according to Lineweaver–Burk as a reciprocal transport rate vs reciprocal Neu5Ac concentration. The transport rate was measured, in 5 min, by adding [^3H] Neu5Ac at the indicated concentrations to proteoliposomes containing 20 mM K^+-gluconate in the presence of valinomycin as described in the Supporting Information. [(A,B) P. mirabilis SiaT]; (A) compound 3f 0.25 μM (●) or 0.75 μM (□) was added in comparison to samples without inhibitor (○). […]
For uptake experiments, 600 μL of proteoliposomes were loaded onto a Sephadex G-75 column (0.7 cm diameter × 15 cm height), pre-equilibrated with 20 mM Hepes Tris pH 7.0 with 40 mM sucrose to balance the internal osmolarity. […] For kinetic measurement, the initial transport rate was measured by stopping the reaction after 5 min, that is, within the initial linear range of [^3H]-Neu5Ac uptake into the proteoliposomes previously described. […] In both uptake and efflux experiments, the transport assay was terminated by loading each proteoliposome sample (100 μL) on a Sephadex G-75 column (0.6 cm diameter × 8 cm height) to remove the external radioactivity. […]

[2] = experiment 1, vs Neu5Ac, read-out: ΔTm 1
[3] = experiment 2, vs Neu5Ac, read-out: ΔTm 2
[4] = experiment 3, vs Neu5Ac, read-out: ΔTm 3

Molecule | Average 1 (PmSiaT) [°C] | Average 2 (PmSiaT) [°C] | Average 3 (PmSiaT) [°C] | Replicate 1 (PmSiaT) [°C] | Replicate 2 (PmSiaT) [°C] | Replicate 3 (PmSiaT) [°C] | Tm 1 (PmSiaT) [°C] | Tm2 (PmSiaT) [°C] | Tm 3 (PmSiaT) [°C] | Tm average overall (PmSiaT) [°C] | Average 1 (SaSiaT) [°C] | Average 2 (SaSiaT) [°C] | Average 3 (SaSiaT) [°C] | Replicate 1 (SaSiaT) [°C] | Replicate 2 (SaSiaT) [°C] | Replicate 3 (SaSiaT) [°C] | Tm 1 (SaSiaT) [°C] | Tm2 (SaSiaT) [°C] | Tm 3 (SaSiaT) [°C] | Overall average (Tm) (SaSiaT) [°C] | other results
CC(=O)N[C@H]1[C@H]([C@H](O)[C@H](O)CO)OC(C(=O)O)=C[C@@H]1O [Compound 9, 2-deoxy-2,3-didehydro-N-acetylneuraminic acid, reference compound] | 45.9 | 46.2 | 46.2 | 45.7 | 46.1 | 46.3 | 46.1 | 46.3 | 46.2 | 46.1 | 45.1 | 45.8 | 45.9 | 45.2 | 46.4 | 46.4 | 45.0 | 45.2 | 45.4 | 45.6 | –
[N-]=[N+]=NCC(=O)N[C@H]1[C@H]([C@H](O)[C@H](O)CO)O[C@@](O)(C(=O)O)C[C@@H]1O [Compound 6h, 5-azidoacetamido-3,5-dideoxy-D-glycero-α-galacto-non-2-ulopyranosonate, reference compound] | 49.2 | 49.0 | 49.1 | 49.2 | 48.8 | 49.3 | 49.2 | 49.2 | 49.0 | 49.1 | 52.8 | 52.9 | 52.8 | 52.7 | 53.0 | 52.7 | 52.8 | 52.7 | 52.8 | 52.8 | ΔTm (PmSiaT; [2]): -0.1 °C; ΔTm (PmSiaT; [3]): 0.1 °C; ΔTm (PmSiaT; [4]): 0 °C; ΔTm at 1250 µM (PmSiaT): 0 °C
CCSCC(O)C(O)C1OC(O)(C(=O)O)CC(O)C1NC(C)=O (stereo not shown) [Compound 8b] | 45.9 | 45.9 | 46.1 | 45.9 | 46.0 | 46.1 | 45.8 | 45.9 | 46.2 | 46.0 | 49.9 | 48.6 | 49.8 | 49.9 | 48.7 | 49.6 | 49.9 | 48.5 | 50.0 | 49.4 | ΔTm (PmSiaT; [2]): -3.1 °C; ΔTm (PmSiaT; [3]): -3.3 °C; ΔTm (PmSiaT; [4]): -3.2 °C; ΔTm at 1250 µM (PmSiaT): -3.2 °C
B1 | – | – | – | – | – | – | – | – | – | – | – | – | – | – | – | – | – | – | – | – | Km [1]: 12.2 ± 2.2 µM; Vmax [1]: 51 ± 9 nmol/mg protein/min
